The subject of data set [1] is leukemic cells from p190 transduced cultures. As to conditions: about 70 mg/kg twice daily; cited from earlier work.
For a further data set, the system named is PC3. Put plainly: Tumor cell line proliferation assay (Alamar Blue). Format: cell-based. As to conditions: Homo sapiens, PC-3. A general note: The colour change of resazurin is a common sign of viable cells or microbes.
For data set [2] the following is noted: control compounds, 5 μM; cited from earlier work.
The target in another data set is PI3K α (Homo sapiens (Human), UniProt P42336). Put plainly: PI3K α inhibition assay. It is filed as biochemical.
PI3K α, sequence (P42336 whole entry): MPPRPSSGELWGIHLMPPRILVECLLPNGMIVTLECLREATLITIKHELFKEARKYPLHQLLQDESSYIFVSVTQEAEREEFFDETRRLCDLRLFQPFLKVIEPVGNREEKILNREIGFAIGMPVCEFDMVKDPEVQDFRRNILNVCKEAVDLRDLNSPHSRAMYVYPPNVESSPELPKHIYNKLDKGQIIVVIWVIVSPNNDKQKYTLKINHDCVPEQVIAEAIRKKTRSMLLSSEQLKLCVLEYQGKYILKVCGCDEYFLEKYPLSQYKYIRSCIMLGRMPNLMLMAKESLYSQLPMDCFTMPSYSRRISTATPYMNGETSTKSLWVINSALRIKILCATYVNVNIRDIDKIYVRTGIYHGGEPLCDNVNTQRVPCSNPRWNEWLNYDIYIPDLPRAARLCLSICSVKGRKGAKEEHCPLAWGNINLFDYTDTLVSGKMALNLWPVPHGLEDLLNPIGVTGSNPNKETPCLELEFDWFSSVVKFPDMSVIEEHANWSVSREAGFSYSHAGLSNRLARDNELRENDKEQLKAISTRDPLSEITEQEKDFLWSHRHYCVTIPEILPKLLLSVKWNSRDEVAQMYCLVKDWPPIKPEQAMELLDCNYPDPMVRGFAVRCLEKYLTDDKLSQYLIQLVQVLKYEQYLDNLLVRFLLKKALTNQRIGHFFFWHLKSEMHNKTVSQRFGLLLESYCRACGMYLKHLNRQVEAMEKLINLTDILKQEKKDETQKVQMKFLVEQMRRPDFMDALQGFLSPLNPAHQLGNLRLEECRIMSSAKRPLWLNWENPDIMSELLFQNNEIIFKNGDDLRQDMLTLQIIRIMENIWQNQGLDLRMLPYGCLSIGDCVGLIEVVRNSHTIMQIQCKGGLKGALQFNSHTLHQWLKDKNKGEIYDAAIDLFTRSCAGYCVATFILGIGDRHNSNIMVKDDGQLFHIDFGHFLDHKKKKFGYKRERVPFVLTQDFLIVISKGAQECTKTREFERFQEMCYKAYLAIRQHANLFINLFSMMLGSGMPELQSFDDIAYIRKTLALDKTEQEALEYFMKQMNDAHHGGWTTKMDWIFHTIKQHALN
PI3K α, sequence (P27986 whole entry partner): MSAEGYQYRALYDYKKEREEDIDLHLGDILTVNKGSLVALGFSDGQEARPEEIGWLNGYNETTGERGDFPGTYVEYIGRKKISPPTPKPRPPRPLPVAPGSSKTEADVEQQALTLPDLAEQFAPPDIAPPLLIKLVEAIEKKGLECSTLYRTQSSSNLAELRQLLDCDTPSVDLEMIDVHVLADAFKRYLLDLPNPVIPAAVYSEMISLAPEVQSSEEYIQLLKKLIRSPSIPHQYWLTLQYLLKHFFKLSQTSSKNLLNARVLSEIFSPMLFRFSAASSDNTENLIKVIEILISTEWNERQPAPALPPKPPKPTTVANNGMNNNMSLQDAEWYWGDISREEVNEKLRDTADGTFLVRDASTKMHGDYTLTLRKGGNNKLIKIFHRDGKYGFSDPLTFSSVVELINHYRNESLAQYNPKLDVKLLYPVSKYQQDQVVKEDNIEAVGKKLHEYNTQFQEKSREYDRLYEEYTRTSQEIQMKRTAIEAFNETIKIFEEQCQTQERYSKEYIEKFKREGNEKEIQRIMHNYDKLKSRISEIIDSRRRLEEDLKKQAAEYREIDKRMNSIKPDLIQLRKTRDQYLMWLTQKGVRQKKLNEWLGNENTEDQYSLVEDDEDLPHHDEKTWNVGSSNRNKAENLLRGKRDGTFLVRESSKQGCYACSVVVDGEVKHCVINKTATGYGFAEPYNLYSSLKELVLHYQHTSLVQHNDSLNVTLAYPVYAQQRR
A further data set deals with PI3K γ (Homo sapiens (Human), UniProt P48736). Nature of the data set: PI3K γ inhibition assay. Format: biochemical.
PI3K γ, sequence (P48736 whole entry): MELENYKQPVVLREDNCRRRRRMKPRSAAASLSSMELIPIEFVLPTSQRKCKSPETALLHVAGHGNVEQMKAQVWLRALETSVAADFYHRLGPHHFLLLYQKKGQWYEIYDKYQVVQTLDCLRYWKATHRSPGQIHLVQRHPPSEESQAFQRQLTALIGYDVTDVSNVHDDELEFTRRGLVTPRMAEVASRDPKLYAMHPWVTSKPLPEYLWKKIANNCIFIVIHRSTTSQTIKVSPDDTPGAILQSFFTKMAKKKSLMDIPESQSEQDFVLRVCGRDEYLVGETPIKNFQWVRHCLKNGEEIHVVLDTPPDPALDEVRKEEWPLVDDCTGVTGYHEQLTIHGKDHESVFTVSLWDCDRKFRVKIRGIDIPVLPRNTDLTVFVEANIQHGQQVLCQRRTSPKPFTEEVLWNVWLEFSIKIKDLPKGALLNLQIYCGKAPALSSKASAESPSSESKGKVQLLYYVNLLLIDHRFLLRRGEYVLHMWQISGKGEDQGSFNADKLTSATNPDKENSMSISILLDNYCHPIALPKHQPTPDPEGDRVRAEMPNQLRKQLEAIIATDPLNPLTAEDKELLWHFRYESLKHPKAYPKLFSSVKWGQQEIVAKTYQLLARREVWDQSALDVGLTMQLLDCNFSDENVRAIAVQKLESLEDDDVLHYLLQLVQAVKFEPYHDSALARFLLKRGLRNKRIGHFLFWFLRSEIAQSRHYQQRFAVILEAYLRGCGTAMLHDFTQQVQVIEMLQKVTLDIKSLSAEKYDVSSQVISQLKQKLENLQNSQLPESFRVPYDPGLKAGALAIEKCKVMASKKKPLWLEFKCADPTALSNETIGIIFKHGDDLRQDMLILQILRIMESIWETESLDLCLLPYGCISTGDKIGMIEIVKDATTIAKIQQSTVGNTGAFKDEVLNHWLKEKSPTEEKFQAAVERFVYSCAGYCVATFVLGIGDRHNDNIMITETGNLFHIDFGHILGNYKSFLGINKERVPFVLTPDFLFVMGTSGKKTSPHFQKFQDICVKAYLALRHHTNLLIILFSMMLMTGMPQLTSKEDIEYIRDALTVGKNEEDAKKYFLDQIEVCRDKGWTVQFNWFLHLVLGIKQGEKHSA
Another data set deals with PI3K δ (Homo sapiens (Human), UniProt O00329). Nature of the data set: PI3K δ inhibition assay. Format: biochemical.
PI3K δ, sequence (O00329 whole entry): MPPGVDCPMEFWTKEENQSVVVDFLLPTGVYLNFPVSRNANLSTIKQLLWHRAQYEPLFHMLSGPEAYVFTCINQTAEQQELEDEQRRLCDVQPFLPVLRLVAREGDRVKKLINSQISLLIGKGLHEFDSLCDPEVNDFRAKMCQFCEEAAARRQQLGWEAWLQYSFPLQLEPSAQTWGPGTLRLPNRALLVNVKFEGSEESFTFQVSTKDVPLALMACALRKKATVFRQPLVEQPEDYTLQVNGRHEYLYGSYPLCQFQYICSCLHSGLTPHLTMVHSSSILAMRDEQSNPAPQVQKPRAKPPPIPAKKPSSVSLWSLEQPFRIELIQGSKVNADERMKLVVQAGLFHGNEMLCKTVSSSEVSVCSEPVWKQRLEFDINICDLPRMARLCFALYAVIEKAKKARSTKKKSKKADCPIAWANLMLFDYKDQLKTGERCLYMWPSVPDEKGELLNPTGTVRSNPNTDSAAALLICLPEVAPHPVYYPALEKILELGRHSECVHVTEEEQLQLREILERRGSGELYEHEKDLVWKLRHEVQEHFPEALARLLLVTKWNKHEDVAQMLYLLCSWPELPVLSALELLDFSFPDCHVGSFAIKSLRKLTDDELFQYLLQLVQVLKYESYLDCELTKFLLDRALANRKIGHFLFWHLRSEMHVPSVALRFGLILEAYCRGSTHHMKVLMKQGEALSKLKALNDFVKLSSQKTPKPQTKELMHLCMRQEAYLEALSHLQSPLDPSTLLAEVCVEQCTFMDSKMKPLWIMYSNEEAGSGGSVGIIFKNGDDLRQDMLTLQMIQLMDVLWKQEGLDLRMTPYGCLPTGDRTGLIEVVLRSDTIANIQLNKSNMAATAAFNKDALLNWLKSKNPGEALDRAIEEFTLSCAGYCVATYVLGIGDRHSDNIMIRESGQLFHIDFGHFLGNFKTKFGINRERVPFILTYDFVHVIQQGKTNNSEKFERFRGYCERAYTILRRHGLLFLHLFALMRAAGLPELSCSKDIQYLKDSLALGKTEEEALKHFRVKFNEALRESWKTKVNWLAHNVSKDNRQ
PI3K δ, sequence (P27986 whole entry partner): as the sequence (P27986 whole entry partner) above
Another data set deals with mTORC (Homo sapiens (Human), UniProt P42345). Put plainly: mTOR kinase inhibition assay. It is filed as biochemical.
The next data set addresses PI3K β (Homo sapiens (Human), UniProt P42338). Nature of the data set: PI3K β inhibition assay. Format: biochemical.
For data set [3] the following is noted: PBS pH 7.4, 24 hours, 37 C; cited from earlier work.
The subject of another data set is PI3K/Akt/mTor signaling. Put plainly: Kinase signaling in blood (phosflow). The settings on record: anti-CD3 stimulation. Format: cell-based. The method, then: PI3K/Akt/mTor signaling is measured in blood cells using the phosflow method (Methods Enzymol. 2007; 434:131-54). The advantage of this method is that it is by nature a single cell assay so that cellular heterogeneity can be detected rather than population averages. This allows concurrent dinstinction of signaling states in different populations defined by other markers. Phosflow is also highly quantitative. To test the effects of the inhibitors disclosed herein, unfractionated splenocytes, or peripheral blood mononuclear cells are stimulated with anti-CD3 to initiate T-cell receptor signaling. The cells are then fixed and stained for surface markers and intracellular phosphoproteins.
Similarly, aliquots of whole blood are incubated for 15 minutes with vehicle (e.g. 0.1% DMSO) or kinase inhibitors at various concentrations, before addition of stimuli to crosslink the T cell receptor (TCR) (anti-CD3 with secondary antibody) or the B cell receptor (BCR) using anti-kappa light chain antibody (Fab′2 fragments). After approximately 5 and 15 minutes, samples are fixed (e.g. with cold 4% paraformaldehyde) and used for phosflow. […] The level of phosphrylation of kinase substrates such as Akt and S6 are then measured by incubating the fixed cells with labeled antibodies specific to the phosphorylated isoforms of these proteins. The population of cells are then analyzed by flow cytometery. […]

In a further data set the test system is B6.Sle1z.Sle3z model. The settings on record: cited from earlier work.

Like-named read-outs stand apart in the source and are kept apart here.

PI3K β, sequence (P42338 whole entry): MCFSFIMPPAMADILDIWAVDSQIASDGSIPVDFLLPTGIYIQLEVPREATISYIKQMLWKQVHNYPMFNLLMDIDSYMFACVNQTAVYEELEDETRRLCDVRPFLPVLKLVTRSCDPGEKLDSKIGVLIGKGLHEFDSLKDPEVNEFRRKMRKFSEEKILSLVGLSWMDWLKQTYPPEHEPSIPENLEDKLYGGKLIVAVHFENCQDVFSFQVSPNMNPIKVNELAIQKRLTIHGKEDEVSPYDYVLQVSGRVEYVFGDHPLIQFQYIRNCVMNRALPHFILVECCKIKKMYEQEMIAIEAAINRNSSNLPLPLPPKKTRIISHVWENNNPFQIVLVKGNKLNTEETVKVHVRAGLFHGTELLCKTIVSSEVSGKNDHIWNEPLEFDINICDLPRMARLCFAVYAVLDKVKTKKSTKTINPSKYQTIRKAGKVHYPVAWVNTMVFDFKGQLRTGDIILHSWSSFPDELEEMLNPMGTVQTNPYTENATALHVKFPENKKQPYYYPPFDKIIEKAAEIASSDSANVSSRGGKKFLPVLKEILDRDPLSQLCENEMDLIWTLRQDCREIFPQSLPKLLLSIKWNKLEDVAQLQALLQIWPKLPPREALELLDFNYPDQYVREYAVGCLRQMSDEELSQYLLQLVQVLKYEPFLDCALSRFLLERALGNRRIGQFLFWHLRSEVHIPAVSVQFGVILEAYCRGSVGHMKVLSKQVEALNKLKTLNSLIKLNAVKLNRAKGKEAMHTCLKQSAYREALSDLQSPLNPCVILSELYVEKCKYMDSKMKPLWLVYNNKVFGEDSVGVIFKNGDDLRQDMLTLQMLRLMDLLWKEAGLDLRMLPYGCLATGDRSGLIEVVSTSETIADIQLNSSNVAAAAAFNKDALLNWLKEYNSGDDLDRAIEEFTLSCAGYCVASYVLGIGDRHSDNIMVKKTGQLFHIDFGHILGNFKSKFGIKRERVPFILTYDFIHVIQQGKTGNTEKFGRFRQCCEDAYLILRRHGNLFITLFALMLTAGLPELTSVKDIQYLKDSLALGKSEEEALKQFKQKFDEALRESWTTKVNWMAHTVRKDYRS
PI3K β, sequence (P27986 whole entry partner): as the sequence (P27986 whole entry partner) above
Protocol for PC3: The ability of one or more subject compounds to inhibit tumor cell line proliferation is determined according to standard procedures known in the art. For instance, an in vitro cellular proliferation assay can be performed to measure the metabolic activity of live cells. The assay is performed in a 96 well microtiter plate using Alamar Blue reduction. […] A compound disclosed herein is diluted in Tumor Cell Media and added in a 10 ul volume. […] A volume of 10 uL of Alamar Blue reagent is added to each well and plates are incubated for 3 hours at 37 C and 5% CO2. Alamar Blue fluoresce is read at 560Ex/590Em, and IC50 values are calculated using GraphPad Prism 5.
Protocol for PI3K α: (§1) IC50 values are measured using either a standard TLC assay for lipid kinase activity (described below) or a high-throughput membrane capture assay. Kinase reactions are performed by preparing a reaction mixture containing kinase, inhibitor (2% DMSO final concentration), buffer (25 mM HEPES, pH 7.4, 10 mM MgCl2), and freshly sonicated phosphatidylinositol (100 μg/ml). Reactions are initiated by the addition of ATP containing 10 μCi of γ-32P-ATP to a final concentration 10 or 100 μM and allowed to proceed for 5 minutes at room temperature. For TLC analysis, reactions are then terminated by the addition of 105 μl 1N HCl followed by 160 μl CHCl3:MeOH (1:1). The biphasic mixture is vortexed, briefly centrifuged, and the organic phase is transferred to a new tube using a gel loading pipette tip precoated with CHCl3. […] The TLC plates are then dried, exposed to a phosphorimager screen (Storm, Amersham), and quantitated.
(§2) Briefly, the assay is a time resolved FRET assay that indirectly measures PIP3 product formed by the activity of a PI3-K. The kinase reaction is performed in a microtitre plate (e.g., a 384 well microtitre plate). The total reaction volume is approximately 20 ul per well. In the first step, each well receives 2 ul of test compound in 20% dimethylsulphoxide resulting in a 2% DMSO final concentration. Next, approximately 14.5 ul of a kinase/PIP2 mixture (diluted in 1× reaction buffer) is added per well for a final concentration of 0.25-0.3 ug/ml kinase and 10 uM PIP2. The plate is sealed and incubated for 15 minutes at room temperature. To start the reaction, 3.5 ul of ATP (diluted in 1× reaction buffer) is added per well for a final concentration of 10 uM ATP. The plate is sealed and incubated for 1 hour at room temperature. The reaction is stopped by adding 5 ul of Stop Solution per well and then 5 ul of Detection Mix is added per well. The plate is sealed, incubated for 1 hour at room temperature, and then read on an appropriate plate reader. Data is analyzed and IC50s are generated using GraphPad Prism 5.
Protocol for PI3K β: as §1, §2
Protocol for PI3K γ: as §1, §2
Protocol for PI3K δ: as §1, §2
Protocol for mTORC: The compounds described herein can be tested against recombinant mTOR (Invitrogen) in an assay containing 50 mM HEPES, pH 7.5, 1 mM EGTA, 10 mM MgCl2, 2.5 mM, 0.01% Tween, 10 μM ATP (2.5 μCi of p-32P-ATP), and 3 μg/mL BSA. Rat recombinant PHAS-1/4EBP1 (Calbiochem; 2 mg/mL) is used as a substrate. Reactions are terminated by spotting onto nitrocellulose, which is washed with 1M NaCl/1% phosphoric acid (approximately 6 times, 5-10 minutes each). Sheets are dried and the transferred radioactivity quantitated by phosphorimaging.
For instance, one can use Invitrogen's LanthaScreen™ Kinase assay to test the inhibitors of mTOR disclosed herein. This assay is a time resolved FRET platform that measures the phosphorylation of GFP labeled 4EBP1 by mTOR kinase. The kinase reaction is performed in a white 384 well microtitre plate. The total reaction volume is 20 ul per well and the reaction buffer composition is 50 mM HEPES pH7.5, 0.01% Polysorbate 20, 1 mM EGTA, 10 mM MnCl2, and 2 mM DTT. In the first step, each well receives 2 ul of test compound in 20% dimethylsulphoxide resulting in a 2% DMSO final concentration. Next, 8 ul of mTOR diluted in reaction buffer is added per well for a 60 ng/ml final concentration. To start the reaction, 10 ul of an ATP/GFP-4EBP1 mixture (diluted in reaction buffer) is added per well for a final concentration of 10 uM ATP and 0.5 uM GFP-4EBP1. The plate is sealed and incubated for 1 hour at room temperature. […] The plate is sealed, incubated for 1 hour at room temperature, and then read on a plate reader set up for LanthaScreen™ TR-FRET. Data is analyzed and IC50s are generated using GraphPad Prism 5.

For `Cc1ccc(NC(=O)c2ccc(CN3CCN(C)CC3)cc2)cc1Nc1nccc(-c2cccnc2)n1` [imatinib], the leukemogenesis result in [1] is on record as “delay but not cure leukemogenesis”.
Turning to `CC(C)n1nc(-c2cc3c(Cl)c(O)ccc3[nH]2)c2c(N)ncnc21` [Compound 22], in the data set on PC3 (Table 1, PC3 cells, read-out: PC3 proliferation), the IC50 is less than 500 nM.
Consider `CC(C)[N+](C)(CCOC(=O)C1c2ccccc2Oc2ccccc21)C(C)C` [propantheline], for which, in [2], the plasma stability entry is recorded as “intermediate plasma stability”.
With `CNC(=O)Nc1nc2ccc(-c3nn(C4CCN(C(C)=O)CC4)c4ncnc(N)c34)cc2s1` [Compound 23], the IC50 at PI3K α (Table 2, compound numbers of Table 3, read-out: IC50 results PI3K alpha) was not above 50 nM; with PC3 (Table 2, compound numbers of Table 3, read-out: IC50 results PC3 proliferation) it was more than 1000 nM; on PI3K γ (Table 2, compound numbers of Table 3, read-out: IC50 results PI3K gamma), not above 50 nM; on PI3K δ (Table 2, compound numbers of Table 3, read-out: IC50 results PI3K delta) it was not above 50 nM; on mTORC (Table 2, compound numbers of Table 3, read-out: IC50 results mTORC) it was not above 50 nM; at PI3K β (Table 2, compound numbers of Table 3, read-out: IC50 results PI3K beta), not above 100 nM.
In the case of `O=C(O)CCCc1ccc(N(CCCl)CCCl)cc1` [chlorambucil], the chemical stability entry in [3] is reported as “largely hydrolyzed over the course of 24 hours”.
For `CO[C@H]1C[C@@H]2CC[C@@H](C)[C@@](O)(O2)C(=O)C(=O)N2CCCC[C@H]2C(=O)O[C@H]([C@H](C)C[C@@H]2CC[C@@H](O)[C@H](OC)C2)CC(=O)[C@H](C)/C=C(\C)[C@@H](O)[C@@H](OC)C(=O)[C@H](C)C[C@H](C)/C=C/C=C/C=C/1C` [rapamycin], in the data set with PI3K/Akt/mTor signaling, the Akt phosphorylation result is listed as “enhances” and the S6 phosphorylation result is on record as “inhibits”.
In the case of `CC(C)N1CCC(n2nc(-c3cc4c(Cl)ccc(O)c4[nH]3)c3c(N)ncnc32)CC1` [Compound 71], the IC50 on PI3K α (Table 1, read-out: PI3K α IC50) was more than 500 nM; at PI3K γ (Table 1, read-out: PI3K γ IC50) it was more than 500 nM; at PI3K δ (Table 1, read-out: PI3K δ IC50), more than 500 nM; at mTORC (Table 1, read-out: mTORC IC50), less than 100 nM; on PI3K β (Table 1, read-out: PI3K β IC50), more than 500 nM.
As for `CCCOc1cc(N)ccc1C(=O)OCCN(CC)CC` [propoxycaine], in data set [2], the plasma stability result is reported as “low plasma stability”.
Regarding `CN1CCN(C2CC(n3nc(-c4cc5cc(O)ccc5[nH]4)c4c(N)ncnc43)C2)CC1` (stereo not shown) [Compound 52], the IC50 at PI3K α (Table 1, read-out: PI3K α IC50) was more than 500 nM; on PI3K γ (Table 1, read-out: PI3K γ IC50), more than 500 nM; at PI3K δ (Table 1, read-out: PI3K δ IC50), less than 500 nM; on mTORC (Table 1, read-out: mTORC IC50), less than 500 nM; on PI3K β (Table 1, read-out: PI3K β IC50) it was more than 500 nM.
With `Nc1ncnc2c1c(-c1cc3cccc(O)c3[nH]1)nn2C1CCOCC1` [Compound 62], the IC50 on PI3K α (Table 1, read-out: PI3K α IC50) is more than 500 nM; on PI3K γ (Table 1, read-out: PI3K γ IC50), more than 500 nM; at PI3K δ (Table 1, read-out: PI3K δ IC50), less than 100 nM; at mTORC (Table 1, read-out: mTORC IC50) it was less than 5 nM; on PI3K β (Table 1, read-out: PI3K β IC50) it was more than 500 nM.
`COc1cccc2cc(-c3nn(C4CCOCC4)c4ncnc(N)c34)[nH]c12` [Compound 63]: the IC50 on PI3K α (Table 1, read-out: PI3K α IC50) is less than 500 nM; on PI3K γ (Table 1, read-out: PI3K γ IC50) it was less than 25 nM; at PI3K δ (Table 1, read-out: PI3K δ IC50) it was less than 25 nM; on mTORC (Table 1, read-out: mTORC IC50), less than 5 nM; on PI3K β (Table 1, read-out: PI3K β IC50) it was more than 500 nM.
Take `CO[C@H]1C[C@@H]2CC[C@@H](C)[C@@](O)(O2)C(=O)C(=O)N2CCCC[C@H]2C(=O)O[C@H]([C@H](C)C[C@@H]2CC[C@@H](OCCO)[C@H](OC)C2)CC(=O)[C@H](C)/C=C(\C)[C@@H](O)[C@@H](OC)C(=O)[C@H](C)C[C@H](C)/C=C/C=C/C=C/1C` [RAD001]: the lupus symptoms entry in the data set on B6.Sle1z.Sle3z model is reported as “ameliorate lupus symptoms”.
With `COc1cc(Cl)c2[nH]c(-c3nn(C4CCOCC4)c4ncnc(N)c34)cc2c1` [Compound 67], the IC50 at PI3K α (Table 1, read-out: PI3K α IC50) was more than 500 nM; at PI3K γ (Table 1, read-out: PI3K γ IC50) it was more than 500 nM; at PI3K δ (Table 1, read-out: PI3K δ IC50) it was more than 500 nM; on mTORC (Table 1, read-out: mTORC IC50), more than 500 nM; at PI3K β (Table 1, read-out: PI3K β IC50), more than 500 nM.
For `CC(=O)N1CCC(n2nc(-c3cc4cc(O)cc(Cl)c4[nH]3)c3c(N)ncnc32)CC1` [Compound 70], the IC50 at PI3K α (Table 1, read-out: PI3K α IC50) was less than 500 nM; at PI3K γ (Table 1, read-out: PI3K γ IC50) it was less than 100 nM; at PI3K δ (Table 1, read-out: PI3K δ IC50) it was less than 25 nM; at mTORC (Table 1, read-out: mTORC IC50), less than 5 nM; at PI3K β (Table 1, read-out: PI3K β IC50) it was more than 500 nM.
Regarding `Nc1ncnc2c1c(-c1cc3cc(O)ccc3[nH]1)nn2C1CC(N2CCOCC2)C1` (stereo not shown) [Compound 49], the IC50 on PI3K α (Table 1, read-out: PI3K α IC50) is more than 500 nM; on PI3K γ (Table 1, read-out: PI3K γ IC50), less than 500 nM; at PI3K δ (Table 1, read-out: PI3K δ IC50), less than 500 nM; on mTORC (Table 1, read-out: mTORC IC50) it was less than 10 nM; at PI3K β (Table 1, read-out: PI3K β IC50), more than 500 nM.

The values are drawn from patent publication US9828378B2, “Kinase inhibitors and methods of use” (Intellikine LLC, priority 2008, dated 2017).
